Assay [1] addresses T1, human recombinant (CHO cell) AT1 receptor (Homo sapiens, UniProt P30556).
T1 construct: expressed in transfected cells; host or cells: CHO cells
T1 sequence (P30556 1-359): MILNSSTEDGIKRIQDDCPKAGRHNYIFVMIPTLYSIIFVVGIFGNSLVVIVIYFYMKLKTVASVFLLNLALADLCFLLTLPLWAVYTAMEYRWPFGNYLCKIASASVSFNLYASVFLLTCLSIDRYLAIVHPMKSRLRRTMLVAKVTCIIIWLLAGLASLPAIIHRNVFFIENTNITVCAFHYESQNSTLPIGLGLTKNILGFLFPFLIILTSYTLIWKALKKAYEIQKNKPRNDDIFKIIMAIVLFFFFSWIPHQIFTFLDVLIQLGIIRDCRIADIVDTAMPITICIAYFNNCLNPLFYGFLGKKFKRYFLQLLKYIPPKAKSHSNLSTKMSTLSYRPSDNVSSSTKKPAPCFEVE
Briefly: Angiotensin II inhibition test (radioligand binding to AT1 receptor). As to conditions: test compound concentration 10^−9 M; radioactive iodine-labeled angiotensin II, 37° C., sixty minutes; read-out: Inhibition rate (%). As for the experimental part: A test of inhibition of angiotensin II to human recombinant (CHO cell) AT1 receptor following a method described in the literature (for example, Regul. Pept., vol. 44 (2), page 131 (1993)) was used to measure inhibitory activity to a test compound.
The ligand used was 10^−9 M of a test compound dissolved in 1% DMSO (dimethylsulfoxide). This was reacted with radioactive iodine-labeled angiotensin II at 37° C. for sixty minutes. Taking the inhibition rate of angiotensin II at 10 μM as nonspecific binding, the specific binding rate was calculated by subtracting this nonspecific portion. Table 6 indicates the results (the inhibition rate at test compound concentration: 10^−9 M)

Assay [2] has as its system ob/ob mice (C57b1/6ob/ob female mice). Description: Glucose tolerance test (in vivo). As to conditions: fasted ob/ob mice, oral load 2 g/kg glucose, Example 8 oral 10 mg/kg days 1-25 then 20 mg/kg days 26-33, rosiglitazone 3 mg/kg, n=8. As for the experimental part:
(§1) A test compound (the compound of Example 8, n=8) was given orally to 5- to 6-week-old ob/ob mice (C57b1/6ob/ob female mice) at a dose of 10 mg/kg for 1-25 days, then a test compound (the compound of Example 8) was given at 20 mg/kg for 26-33 days. An oral load test of 2 g/kg of glucose was carried out while the mice were fasted, and the blood glucose concentration was measured at −30, 0, 30, 60, 90, 120, and 180 minutes. For comparison, 3 mg/kg of rosiglitazone (n=8) were given for 1-25 days, then 3 mg/kg of rosiglitazone were given for 26-33 days, and the blood glucose concentration was measured in the same manner. Table 7 indicates the results.

Assay [3] can be described thus: Weight gain test (in vivo). As to conditions: ob/ob mice, Example 8 10 mg/kg, rosiglitazone 3 mg/kg, days 1-25. As for the experimental part: as §1
The body weight of mice was measured when 10 mg/kg of the same test compound (the compound of Example 8) were given for 1-25 days, and 3 mg/kg of rosiglitazone were given for 1-25 days. Table 8 indicates the results.

Here are results for 6 compounds from patent publication US20130165446A1 (priority 2010, published 2013).

In general, inhibition refers to the drop in the measured response relative to a control, in per cent.

Structures are written as SMILES.

Take `CCCc1nc(CSc2ccc(Oc3ccc4nc(COc5ccc(CC6SC(=O)NC6=O)cc5)n(C)c4c3)cc2)c(C(=O)OC)n1Cc1ccc(-c2ccccc2-c2nnn[nH]2)cc1` (centres unmarked) [Example 30, 4-[4-{2-[4-(2,4-dioxothiazolidin-5-ylmethyl)phenoxymethyl]-1-methyl-1H-benzimidazol-6-yloxy}phenylthiomethyl]-2-propyl-1-[2′-(1H-tetrazol-5-yl)biphenyl-4-ylmethyl]-1H-imidazole-5-carboxylic acid methyl ester]: in assay [1], the inhibition at 0.001 µM turned out to be 66%.
For the compound `CCCc1nc(CNc2ccc(Oc3ccc4nc(COc5ccc(CC6SC(=O)NC6=O)cc5)n(C)c4c3)cc2)c(C(=O)OCC)n1Cc1ccc(-c2ccccc2-c2nnn[nH]2)cc1` (centres unmarked) [Example 31, 4-{N-[4-[2-(4-[2,4-dioxothiazolidin-5-ylmethyl]phenoxymethyl)-1-methyl-1H-benzimidazol-6-yloxy]phenyl]aminomethyl}-2-propyl-1-[2′-(1H-tetrazol-5-yl)biphenyl-4-ylmethyl]-1H-imidazole-5-carboxylic acid ethyl ester], the inhibition at 0.001 µM in assay [1] came to 22%.
Same read-out and setting: then `CCCc1nc(CSc2ccc3nc(COc4ccc(CC5SC(=O)NC5=O)cc4)n(C)c3c2)c(C(=O)OCC)n1Cc1ccc(-c2ccccc2-c2nnn[nH]2)cc1` (centres unmarked) [Example 33, 4-{2-[4-(2,4-dioxothiazolidin-5-ylmethyl)phenoxymethyl]-1-methyl-1H-benzimidazol-6-ylthiomethyl}-2-propyl-1-[2′-(1H-tetrazol-5-yl)biphenyl-4-ylmethyl]-1H-imidazole-5-carboxylic acid ethyl ester], with 87%.
For `CCCc1nc(CSc2ccc3nc(COc4ccc(CC(OCc5ccc(Cl)cc5)C(=O)O)cc4)n(C)c3c2)c(C(=O)OCC)n1Cc1ccc(-c2ccccc2-c2nnn[nH]2)cc1` (centres unmarked) [Example 35, 3-[4-[6-(5-ethoxycarbonyl-1-{2′-(1H-tetrazol-5-yl)biphenyl-4-ylmethyl}-2-propyl-1H-imidazol-4-ylmethylthio)-1-methyl-1H-benzimidazol-2-ylmethoxy]phenyl]-2-(4-chlorobenzyloxy)propionic acid], in assay [1], the inhibition at 0.001 µM was found to be 90%.
The same measure, in the same setting: then `CCCc1nc(CSc2ccc3nc(COc4ccc(CN(CC(=O)O)C(=O)Oc5ccccc5)cc4)n(C)c3c2)c(C(=O)OCC)n1Cc1ccc(-c2ccccc2-c2nnn[nH]2)cc1` [Example 36, N-[4-{6-[5-ethoxycarbonyl-1-{2′-(1H-tetrazol-5-yl)biphenyl-4-ylmethyl}-2-propyl-1H-imidazol-4-ylmethylthio]-1-methyl-1H-benzimidazol-2-ylmethoxy}phenylmethyl]-N-phenyloxycarbonylaminoacetic acid], with 83%.
Consider `CN(CCOc1ccc(CC2SC(=O)NC2=O)cc1)c1ccccn1` (centres unmarked) [Rosiglitazone, rosiglitazone, reference compound], for which the “Glucose concentration” value was found to be 4.6 ± 0.3 mmol/L in assay [2] (0 min); 12.5 ± 0.9 mmol/L in assay [2] (30 min); 4.9 ± 0.3 mmol/L in assay [2] (60 min); 4.6 ± 0.1 mmol/L in assay [2] (120 min); 4.6 ± 0.1 mmol/L in assay [2] (180 min); 4.6 ± 0.3 mmol/L in assay [2] (−30 min). Also, the “Weight gain” value was found to be 0 g in assay [3] (day 0); 1.2 ± 0.1 g in assay [3] (day 4); 4.5 ± 0.3 g in assay [3] (day 11); 5.8 ± 0.1 g in assay [3] (day 14); 7.5 ± 0.2 g in assay [3] (day 18); 8.9 ± 0.2 g in assay [3] (day 24).
